Reference: patent EP0140848A1, “A pharmaceutical composition containing azo-bis-salicylic acid or a salt thereof, and a method for the treatment of inflammatory conditions in the intestines” (priority 1983, dated 1985)

Tests used:
[1] = Toxicity (general statement, no method described); details: no data or method given
[2] = tested on: tuberculosis; details: according to Ind. J. Med. Res. 40 (1952), p. 4-5, and Ind. J. Pharm. 13 (1951), p. 3-5; cited from earlier work

Row | Compound | toxicity [1] | activity against tuberculosis [2]
1 | CC(=O)Nc1ccc(C(=O)O)c(O)c1 [Ac-PAS, N-acetyl-p-aminosalicylic acid] | remarkably low | –
2 | Nc1ccc(C(=O)O)c(O)c1 [PAS, 4-aminosalicylic acid, reference compound] | remarkably low | –
3 | O=C(O)c1ccc(N=Nc2ccc(C(=O)O)c(O)c2)cc1O [4,4'-azo-bis-salicylic acid] | remarkably low | inactive
